BindingDB's records for doi:10.1021/jm00090a009 (Takeda Chemical Industries, 1992)

Molecular target: Thromboxane A2 receptor (Cavia porcellus)
Assay: Compound was evaluated for its ability to inhibit specific binding of [3H]U-46619 to Thromboxane A2/ Prostaglandin H2 receptor in guinea pig platelet membrane

Row | IC50 | SMILES
1 | 1400 nM | Cc1c(C)c(O)c(C(=CCCCCC(=O)O)c2ccc(F)cc2)c(C)c1O
2 | 30 nM | Cc1c(C)c(C(CCCCCC(=O)O)c2ccc(F)cc2)c(O)c(C)c1C=O (configuration not stated)
